Values joined by “and” are separate entries in the source; they are usually repeats but may differ in a detail not shown here. Equal values may be shown once. Read-outs that look alike come from different tables or passages of the source.
Columns and labels:
[1] = Pharmacokinetic studies in mice (IV and PO); assay type: in vivo, female CD-1 mice; settings: female, CD-1, plasma, mouse; for AUC(0-inf): read-out: AUC (infinity); for clearance: read-out: CL/kg (converted); for half-life: read-out: Elimination t1/2 (converted); for Vd: read-out: Vd (area); for bioavailability: PO 10 mg kg^−1 vs IV 1 mg kg^−1, read-out: Bioavailability (F%)
Description: PK parameters for the lead compounds were determined using three mice per data point (Supplementary Methods 6.1).
Blood samples were collected from terminal cardiac puncture at 0.08 (IV only), 0.25, 0.5, 1 (PO only), 2, 4, 8 and 24 hour time points. The whole blood was centrifuged to obtain plasma. Brains were also collected following cardiac perfusion from both sets of animals at 2 hours. Analysis of the biological samples was carried out by the company Selcia. Plasma proteins were precipitated by addition of PBS (1 volume) followed by 3 volumes of acetonitrile containing internal standard (verapamil). Following filtration through a protein precipitation plate the eluent was dried under nitrogen and re-suspended in mobile phase prior to analysis. Individual brains were homogenised in PBS and diluted to 10% w/v and divided into aliquots consisting of brain homogenate (1 volume, 0.3 ml) and 3 volumes (0.9 ml) of acetonitrile containing internal standard. Samples were centrifuged and supernatants removed and taken through a protein precipitation plate alongside an appropriate standard. Eluents were dried under nitrogen and re-suspended in mobile phase prior to analysis. Eluents were analysed by LC-MS/MS using a Phenomenex Gemini NX column (C18,30 x 2.1 mm, 3 micron). Analysis of the data was carried out using PK solutions software.

[2] = Plasma protein binding, human plasma; assay type: in vitro ADME; settings: equilibrium dialysis, read-out: Human plasma protein binding fu(%)
Description: (§1) A HepG2 cytotoxicity assay was used to determine a cellular selectivity index. HepG2 cells were seeded into 96-well plates in EMEM medium. Compounds were assessed for their effect upon cellular viability (Supplementary Methods 5.1). Inhibition of CYP450 was determined using kits from BD Biosciences (Supplementary Methods 5.2). Metabolic stability was determined using mouse […] tested at a single concentration of 5 µM. Plasma protein binding was determined using mouse and human plasma at a single concentration of 10 µM (Supplementary Methods 5.4). All PK studies in mice were carried out by Pharmidex (Supplementary Methods 6.1).
Compounds were tested for protein binding using mouse and human plasma at a single concentration of 10 µM and measured by equilibrium dialysis between plasma and buffer. The amount of parent was determined on both sides of the membrane after incubating for 4 hours at 37 °C. The samples were crashed with acetonitrile and put through protein precipitation plates. The eluent was analysed by LC/MS or LC/MS/MS. Output was percentage bound.

[3] = Metabolic stability, human liver microsomes; assay type: in vitro ADME; settings: read-out: HLM Clint
Description: as §1
Compounds were tested for their metabolic stability using mouse and human liver microsomes (MLM and HLM). The compounds were tested at a single concentration of 5 µM. The samples were crashed with acetonitrile and put through protein precipitation plates. The eluent was analysed by LC/MS or LC/MS/MS.

T. b. brucei GVR35-VSL2 = experiment: Mouse model of stage 1 and stage 2 HAT, bioluminescence imaging; assay type: in vivo, T. b. brucei in female CD-1 mice; settings: for Side head bioluminescence - Total Flux: D23, individual mice, Supp_Fig13; for parasitaemia in brains of saline-perfused mice: stage 2, day 23, ex vivo; for bioluminescence signal in the body, stage 2 treatment: treatment from day 21
Excerpt: An alternative mouse model for stage 1 (acute) and stage 2 (CNS-involved) HAT has been developed using a transgenic cell line derived from the pleiomorphic T. b. brucei GVR35 that expresses red-shifted firefly luciferase[17],[18]. […] T. b. brucei GVR35-infected mice present stage 1 disease by day 7 post infection with progression to stage 2 by day 21. By injecting the mouse with luciferin, the level of parasitaemia can be estimated in real time by monitoring the luminescence. Unlike monomorphic Lister 427 T. b. brucei, the pleiomorphic GVR35 T. b. brucei is controlled by a quorum-sensing mechanism resulting in the significant increase in survival time in mice and lower blood parasitaemia that occurs in waves. This extended survival time is also accompanied by parasite dissemination to multiple tissues and organs, including the skin, adipose tissue, lung and brain, with parasite loads increasing over time[17],[19].
For the mouse model of stage 1 and stage 2 HAT T. b. brucei GVR35-VSL2 parasites (3 × 10^4) were injected into a single donor female CD-1 mouse intraperitoneally. Once infection was established, starting on day 7 for stage 1 studies and day 21 for stage 2 studies, mice were either left untreated (n = 3) or dosed by oral gavage with CTCB compound in Cremophor EL: EtOH: D-PBS (30:10:60 v/v; n = 6). Progression of T. b. brucei GVR35-VSL2 infection was monitored primarily by in vivo bioluminescence imaging of infected mice using an IVIS Spectrum (PerkinElmer). For stage 1 studies, imaging of infected mice was performed before treatment on day 7 post infection and on days following the treatment (days 8, 9 and 14). Imaging on groups of three mice was performed 12 min after intraperitoneal injection of 150 mg kg^−1 D-luciferin (Promega) in PBS. For stage 2 studies, mice were imaged prior to treatment on day 21, and subsequently on days 22 and 23. On day 23, 24 h after the final dose, mice were sacrificed by cervical dislocation and perfused with PBS containing 15 g L^−1 glucose to allow ex vivo imaging of whole brains (Supplementary Figs. 12 and 13).
Female CD-1 (Charles River UK; 6-8 weeks old) mice were infected with 3 × 10^4 T. b. brucei GVR35-VSL2 bloodstream form parasites intraperitoneally. T. b. brucei GVR35-VSL2 expresses red-shifted luciferase and provides a better signal for imaging (13). Once infection was established, starting on day 7 for Stage 1 studies and day 21 for Stage 2 studies, mice were either left untreated (n=3) or dosed by oral gavage with CTCB compound in Cremophor EL: EtOH : D-PBS (30:10:60 v/v) (n = 6). Additional groups of mice (n=3) that received either a single intraperitoneal dose of diminazene aceturate (Sigma-Aldrich) at 40 mg/kg in sterile water or 0.1 ml melarsoprol gel (14) containing 3.6 mg melarsoprol, applied topically for 3 consecutive days, served as controls for Stage 1 and Stage 2 treatment studies, respectively.
Progression of T. b. brucei GVR35-VSL2 infection was monitored primarily by in vivo bioluminescence imaging of infected mice using an IVIS Spectrum (PerkinElmer) as described previously (5). For stage 1 studies, imaging of infected mice was performed before treatment on day 7 post-infection and in days following the treatment (days 8, 9 and 14). Imaging on groups of three mice was performed 12 minutes after intraperitoneal injection of 150 mg/kg D-luciferin (Promega) in PBS. For stage 2 studies, mice were imaged prior to treatment on day 21 and subsequently on days 22 and 23. On day 23, 24 hours after the final dose, mice were sacrificed by cervical dislocation and perfused with phosphate-buffered saline containing 15 g.L^−1 glucose to allow ex vivo imaging of whole brains. To this end, 100 μl D-luciferin was administered onto the brain surface and imaging performed immediately thereafter.

## CN(C)CCn1ccc2c(ccn2Cc2ccc(F)c(Br)c2)c1=O [CTCB-508, 1-[(3-Bromo-4-fluorophenyl)methyl]-5-[2-(dimethylamino)ethyl] pyrrolo[3,2-c]pyridin-4-one]
[1]; IV 1 mg kg^−1
  AUC(0-inf): 349 ng·h/mL
  clearance: 45 mL/min/kg
  half-life: 0.7 h
  Vd: 2.9 L/kg
[1]; PO 10 mg kg^−1
  Cmax: 1330 ng/mL
  Tmax: 2 h
  AUC(0-inf): 4170 ng·h/mL
[1]
  bioavailability: 119%
[2]
  fraction unbound at 4 h, 10 µM: 0.21
[3]
  microsomal CLint at 5 µM: < 8.6 µL/min/mg
T. b. brucei GVR35-VSL2
  Side head bioluminescence - Total Flux: 7.338E+06 p/s and 1.920E+06 p/s and 5.353E+06 p/s and 4.553E+06 p/s and 1.258E+07 p/s and 2.035E+07 p/s
  parasitaemia in brains of saline-perfused mice: very clear reduction in parasitaemia
  bioluminescence signal in the body, stage 2 treatment: fast and significant signal reduction in the body

## CN(C)CCn1ccc2c(ccn2Cc2ccc(Cl)c(Br)c2)c1=O [CTCB-470, 1-[(3-Bromo-4-chlorophenyl)methyl]-5-[2-(dimethylamino)ethyl] pyrrolo[3,2-c]pyridin-4-one]
[1]; IV 1 mg kg^−1
  AUC(0-inf): 657 ng·h/mL
  clearance: 25 mL/min/kg
  half-life: 3.1 h
  Vd: 6.9 L/kg
[1]; PO 10 mg kg^−1
  Cmax: 393 ng/mL
  Tmax: 0.5 h
  AUC(0-inf): 1560 ng·h/mL
[1]
  bioavailability: 24%
[2]
  fraction unbound at 4 h, 10 µM: 0.032
[3]
  microsomal CLint at 5 µM: 17 µL/min/mg
T. b. brucei GVR35-VSL2
  Side head bioluminescence - Total Flux: 1.100E+07 p/s and 7.724E+06 p/s and 5.606E+06 p/s and 1.306E+06 p/s and 2.050E+07 p/s and 2.702E+06 p/s
  parasitaemia in brains of saline-perfused mice: very clear reduction in parasitaemia
  bioluminescence signal in the body, stage 2 treatment: fast and significant signal reduction in the body

— PMC7887271, “Fast acting allosteric phosphofructokinase inhibitors block trypanosome glycolysis and cure acute African trypanosomiasis in mice” (Nature Communications, 2021)
